Laboratory results published in the NIST ThermoML archive (doi:10.1016/j.jct.2005.08.009).
± gives the expanded uncertainty stated by the source.

How the values were obtained:
[1] = 101 kPa, Liquid
[2] = xn = mol fraction of the nth substance listed; details: 101 kPa, Liquid, x2 = 0

mass density ([1]; 298.15 K) [kg/m3] | viscosity ([1]; 298.15 K) [mPa·s] | mass density ([1]; 303.15 K) [kg/m3] | viscosity ([1]; 303.15 K) [mPa·s] | mass density ([1]; 308.15 K) [kg/m3] | viscosity ([1]; 308.15 K) [mPa·s] | mass density ([1]; 313.15 K) [kg/m3] | viscosity ([1]; 313.15 K) [mPa·s] | mass density ([1]; 318.15 K) [kg/m3] | viscosity ([1]; 318.15 K) [mPa·s] | viscosity ([2]; 298.15 K) [mPa·s] | viscosity ([2]; 303.15 K) [mPa·s] | viscosity ([2]; 308.15 K) [mPa·s] | viscosity ([2]; 313.15 K) [mPa·s] | viscosity ([2]; 318.15 K) [mPa·s] | SMILES
776.69 ± 1.9 | 0.3417 ± 0.0053 | 771.89 ± 1.9 | 0.328 ± 0.0051 | 765.46 ± 2 | 0.3129 ± 0.0049 | 760.86 ± 2 | 0.3009 ± 0.0048 | 754.76 ± 2 | 0.2899 ± 0.0047 |  |  |  |  |  | CC#N [acetonitrile]
 |  |  |  |  |  |  |  |  |  | 0.8901 ± 0.011 | 0.7973 ± 0.01 | 0.7193 ± 0.0093 | 0.653 ± 0.0086 | 0.5961 ± 0.008 | O [water] + CC#N
